Laboratory results as given in the supplement of paper PMC10721915.

Legend:
Assay in all cases: relative cell growth vs untreated control (GI, NCI-DTP normalisation with time-zero) (fraction of control growth); higher = more growth / less inhibition
Conditions in all cases: treatment time: 120 h
A204 = test system: A204
Procedure: (§1)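 Cancer cell lines in 96-well plates were treated 48 h after seeding with M4076 (ATM inhibitor) and berzosertib (ATR inhibitor), alone or mixed, in 4-fold dilutions for 120 h. Protein was read by sulforhodamine B staining, background-subtracted and normalised NCI-DTP style to untreated control growth. Rows with one concentration equal to 0 are monotherapy.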

ASPC1 = test system: ASPC1
Procedure: as §1

COLO205 = test system: COLO205
Procedure: as §1

DU145 = test system: DU145
Procedure: as §1

HT29 = test system: HT29
Procedure: as §1

MDAMB435 = test system: MDAMB435
Procedure: as §1

MV411 = test system: MV411
Procedure: as §1

SW620 = test system: SW620
Procedure: as §1

U2OS = test system: U2OS
Procedure: as §1

U87MG = test system: U87MG
Procedure: as §1

COc1cc2ncc3c(c2cc1-c1cn(C)nc1C)n(-c1c(F)cncc1OC)c(=O)n3C [M4076] + CNCc1ccc(-c2cc(-c3nc(-c4ccc(S(=O)(=O)C(C)C)cc4)cnc3N)on2)cc1 [berzosertib]
relative cell growth
Conditions | A204 | ASPC1 | COLO205 | DU145 | HT29 | MDAMB435 | MV411 | SW620 | U2OS | U87MG
concentration of first compound 0.0195 µM, concentration of partner 0 M | 1.25 | 1.2 | 1.18 | 1.09 | 1.3 | 1.09 | 1.23 | 1.08 | 1.1 | 1.1
concentration of first compound 0.0195 µM, concentration of partner 0.2 µM | 0.675 | 0.322 | 0.641 | 1.05 | 0.0171 | 1.01 | 1.18 | 0.95 | 0.876 | 0.891
concentration of first compound 0.0781 µM, concentration of partner 0 M | 1.16 | 1.08 | 1.15 | 1.12 | 1.23 | 1.09 | 1.28 | 1.09 | 1.09 | 1.12
concentration of first compound 0.0781 µM, concentration of partner 0.2 µM | 0.9 | 0.194 | 0.668 | 1.09 | 0.0537 | 1.05 | 1.09 | 0.848 | 0.865 | 0.839
concentration of first compound 0.313 µM, concentration of partner 0 M | 1.1 | 1.2 | 1.12 | 1.11 | 1.19 | 1.04 | 1.24 | 1.01 | 0.972 | 1.09
concentration of first compound 0.313 µM, concentration of partner 0.2 µM | 0.654 | 0.0757 | 0.373 | 0.774 | 0.00799 | 0.622 | 0.887 | 0.449 | 0.504 | 0.682
concentration of first compound 1 µM, concentration of partner 0 M | 0.83 | 0.84 | 0.959 | 0.98 | 0.888 | 0.988 | 0.903 | 0.958 | 0.916 | 0.966
concentration of first compound 1 µM, concentration of partner 0.0195 µM | 0.965 | 0.803 | 0.916 | 0.893 | 0.81 | 1.01 | 1.22 | 0.922 | 0.798 | 0.944
concentration of first compound 1 µM, concentration of partner 0.0781 µM | 0.785 | 0.418 | 0.37 | 0.862 | 0.27 | 0.701 | 1.18 | 0.646 | 0.611 | 0.82
concentration of first compound 1 µM, concentration of partner 0.313 µM | 0.205 | -0.0794 | 0.105 | 0.133 | -0.0312 | 0.14 | 0.312 | 0.168 | 0.191 | 0.343
concentration of first compound 1 µM, concentration of partner 1.25 µM | -0.0708 | -0.118 | 0.0405 | -0.0604 | -0.0506 | -0.00922 | -0.0158 | 0.0263 | -0.111 | 0.0996
concentration of first compound 1 µM, concentration of partner 5 µM | -0.102 | -0.115 | -0.0244 | -0.0855 | -0.0437 | -0.0254 | -0.0221 | -0.014 | -0.131 | 0.134
concentration of first compound 1.25 µM, concentration of partner 0 M | 0.914 | 0.943 | 1.02 | 1.05 | 1.11 | 1.03 | 1.09 | 0.96 | 0.935 | 1.01
concentration of first compound 1.25 µM, concentration of partner 0.2 µM | 0.685 | 0.0458 | 0.208 | 0.496 | 0.00308 | 0.411 | 0.746 | 0.293 | 0.312 | 0.505
concentration of first compound 5 µM, concentration of partner 0 M | 0.524 | 0.675 | 0.892 | 0.872 | 0.933 | 0.92 | 0.708 | 0.916 | 0.852 | 0.853
concentration of first compound 5 µM, concentration of partner 0.2 µM | 0.337 | 0.0314 | 0.172 | 0.307 | -0.00294 | 0.185 | 0.603 | 0.269 | 0.229 | 0.381

CNCc1ccc(-c2cc(-c3nc(-c4ccc(S(=O)(=O)C(C)C)cc4)cnc3N)on2)cc1 [berzosertib] + COc1cc2ncc3c(c2cc1-c1cn(C)nc1C)n(-c1c(F)cncc1OC)c(=O)n3C [M4076]
relative cell growth, concentration of partner 0 M
Conditions | A204 | ASPC1 | COLO205 | DU145 | HT29 | MDAMB435 | MV411 | SW620 | U2OS | U87MG
concentration of first compound 0.0195 µM | 1.15 | 1.3 | 1.1 | 1.08 | 1.22 | 1.07 | 1.25 | 1.1 | 1.07 | 1.09
concentration of first compound 0.0781 µM | 1.06 | 1.07 | 0.981 | 1.13 | 0.613 | 1.06 | 1.32 | 1.07 | 0.977 | 1.07
concentration of first compound 0.2 µM | 0.623 | 0.344 | 0.622 | 1.03 | 0.113 | 0.893 | 0.778 | 0.795 | 0.906 | 0.8
concentration of first compound 0.313 µM | 0.583 | 0.0569 | 0.353 | 0.825 | -0.0285 | 0.656 | 0.429 | 0.494 | 0.9 | 0.677
concentration of first compound 1.25 µM | -0.0148 | -0.0955 | 0.114 | -0.0103 | -0.0598 | -0.0138 | -0.0241 | 0.087 | 0.0428 | 0.185
concentration of first compound 5 µM | -0.0897 | -0.077 | 0.00456 | -0.0587 | -0.0555 | -0.0273 | -0.0294 | -0.01 | -0.0411 | 0.195
